Measured values as given in patent publication US20260048093A1, “COMBINATION THERAPY OF MIXED HERBAL EXTRACT AND DOCETAXEL FOR PREVENTING OR TREATING CANCER” (JAEIN R&P INC., priority 2022, published 2026).

What was measured:
H460 tumor xenograft = H460 tumor xenograft mouse model; assay type: in vivo, Balb/c nude mice; conditions: H460 xenograft mice
Procedure: The effect of the combined administration of the mixed extract of the present invention and docetaxel was investigated in an animal model. All procedures of animal experimentation, including maintenance and euthanasia, were approved by Kyung Hee University Institutional Animal Care and Use Committee (KHU-IACUC-KHSASP-21-211). Five-week-old male Balb/c nude mice were purchased from Nara Biotech (Seoul, Republic of Korea) and acclimated to a 12-h light/dark cycle at 22-23° C. and 40-60% humidity. The mice were divided into four groups: control (n=3), SH003 administration (n=4), DTX administration (n=4), and combined administration (n=5). In order to establish a tumor xenograft mouse model, H460 cell suspension (1×10^7 cells) in 100 μL PBS was subcutaneously inoculated into the right flank of the mice. Thereafter, 200 μL of SH003 (557.569 mg/kg) was administered orally three times a week, and 50 μL DTX (15.277 mg/kg) was administered intravenously via the tail vein once a week for 3 weeks. Saline and DMSO were used as vehicles. The body weight was measured three times a week, and tumor volume was analyzed daily. On day 21, the mice were sacrificed using carbon dioxide and cervical dislocation was performed. Tumor tissues were isolated after euthanasia. […]

A549 cells = assay: Annexin V/7-AAD apoptosis in A549 cells; assay type: cell-based; conditions: 24 hours
Procedure: (§1) In order to investigate the effect of increasing apoptosis by combined administration of the mixed extract of the present invention and docetaxel, Annexin V/7-AAD double staining was used for analysis.
(§2) Specifically, H460 and A549 cells were stained with Annexin V and then stained with 7-AAD in the dark for 15 minutes at room temperature, and then the stained cells were detected by FACSCalibur (BD Biosciences, San Jose, CA, USA), and the apoptotic cells were analyzed using CellQuest Pro version 5.2 (BD Biosciences, San Jose, CA, USA) software. The results are illustrated in FIG. 3.

[1] = test system: gastric cancer cell line AGS; assay: Cell survival rate and combination index in AGS cells; assay type: cell-based
[2] = test system: BT-20 (TNBC, triple-negative breast cancer, non-invasive); assay: MTT assay, viability and combination index in BT-20 cells; assay type: cell-based; conditions: 24 hours, SH003 100, 300, 500 μg/mL, DTX 1, 10, 100, 1000 nM
Procedure: (§3) Thereafter, a 3-(4,5-Dimethylthiazol-2-yl)-2,5-diphenyltetrazolium bromide (MTT) reagent was treated in each cell, the cells were further incubated for 4 hours, and then a supernatant was removed and 100 μL of dimethyl sulfoxide (DMSO) was added. Finally, absorbance was measured at a wavelength of 590 nm and the absorbance value was compared with a control group which was not treated with any material.
Fa indicates the inhibition rate.

[3] = test system: A549 non-small cell lung cancer cell line; assay: WST colorimetric assay, viability in A549 cells; assay type: cell-based; conditions: 24, 48 and 72 hours
Procedure: Specifically, a total of 10^5 cells per well were seeded in a 6-well plate before treatment. After 24 hours, the cells were treated with SH003 (100, 300, and 500 μg/mL), DTX (1, 10, 100, and 1000 nM), or a combination thereof for 24, 48, and 72 hours. […] After treatment, the cells were incubated with WST for 1 hour, and then the absorbance was measured at 450 nm using an ELISA reader (Molecular Devices, Palo Alto, CA, USA).

[4] = test system: MDA-MB-231 (TNBC, highly metastatic); assay: MTT assay, viability and combination index in MDA-MB-231 cells; assay type: cell-based; conditions: 24 hours, SH003 100, 300, 500 μg/mL, DTX 1, 10, 100, 1000 nM
Procedure: as §3
Fa indicates the inhibition rate.

H460 cells = assay: Annexin V/7-AAD apoptosis in H460 cells; assay type: cell-based; conditions: 24 hours
Procedure: as §1, §2

[5] = test system: H460 non-small cell lung cancer cell line; assay: WST colorimetric assay, viability and combination index in H460 cells; assay type: cell-based; conditions: 24, 48 and 72 hours
Procedure: Specifically, a total of 10^5 cells per well were seeded in a 6-well plate before treatment. […] After treatment, the cells were incubated with WST for 1 hour, and then the absorbance was measured at 450 nm using an ELISA reader (Molecular Devices, Palo Alto, CA, USA).
Fa indicates the inhibition rate.

BT-20 tumor xenograft = BT-20 tumor xenograft mouse model; assay type: in vivo, BALB/c nude mice; conditions: BT-20 xenograft mice
Procedure: The effect of the combined administration of the mixed extract of the present invention and docetaxel was investigated in an animal model. All animal studies were approved by Kyung Hee University-Institutional Animal Care & Use Committee (KHU-IACUC). Five-week-old female BALB/c nude mice were purchased from Nara Biotech (Seoul, Republic of Korea). The mice were allowed free access to food and water and were housed in appropriate isolation cages at room temperature (22-25° C.) under a 12-h light/12-h dark cycle in the absence of pathogens. In order to establish a tumor xenograft mouse model, BT-20 cell suspension (1×10^7 cells) in 100 μL PBS was subcutaneously inoculated into the right flank of the mice. The mice were divided into four groups: control group (n=3), SH003 (n=4), DTX (n=4), and SH003+DTX (n=5). When the tumor volume reached 100 mm^3, the drug was injected. DTX was administered intravenously via the tail vein once a week at 15.277 mg/kg, while DMSO was administered to the control or SH003 single-administration group. SH003 was administered orally at 557.569 mg/kg three times a week, while saline was administered to the control or DTX single-administration group. The body weight was measured three times a week, and tumor volume was analyzed daily for 17 days.
Subsequently, the mice were euthanized and the tumors were isolated. […]

CC(=O)O[C@@]12CO[C@@H]1C[C@H](O)[C@@]1(C)C(=O)[C@H](O)C3=C(C)[C@@H](OC(=O)[C@H](O)[C@@H](NC(=O)OC(C)(C)C)c4ccccc4)C[C@@](O)([C@@H](OC(=O)c4ccccc4)[C@H]21)C3(C)C [DTX, Docetaxel]
body weight (H460 tumor xenograft): did not have an effect | apoptosis compared to the control group (in words) (A549 cells): did not significantly affect | AGS cell survival rate [1]: decreased in a concentration-dependent manner | viability of BT-20 cells [2]: decreased the viability | A549 cell growth [3]: inhibited A549 cell growth in a dose-dependent manner | viability of MDA-MB-231 cells [4]: decreased the viability | apoptosis compared to the control group (in words) (H460 cells): did not significantly affect | H460 cell growth [5]: inhibited H460 cell growth in a dose-dependent manner | body weight (BT-20 tumor xenograft): did not have an effect
